Consider one compound from ChEMBL document CHEMBL1201862, “PubChem BioAssay data set” (2004).

Some test systems named below: A498; CAKI-1; EKVX; HCT-15; HOP-62; HOP-92; HT-29; M14; Malme-3M; NCI-H522; OVCAR-3; OVCAR-4; OVCAR-8; SF-295; SK-MEL-2; SNB-19; SR; U-251; UACC-257; UO-31.
Holding throughout (assay): inhibition of tumour cell growth, NCI panel, 48 h

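Grown in 96-well plates, cells were treated for 48 hours with each compound at five concentrations. Insufficient inhibition: endpoint recorded as highest concentration tested. Here, GI50 denotes the concentration required for 50% inhibition of growth.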 Active and inactive are the calls of the source. No stated cut-off is given here; in the data, active = GI50 up to about 1.1 µM and inactive = higher. A value given as a limit tells only on which side of the number the result lay.

Turning to `O=C1c2cc3c(cc2CC12Cc1ccc4c(c1C2=O)CCC4)CCCC3` (stereo not given), the GI50 is > 100 µM (inactive) with A498; > 100 µM (inactive) in the assay on CAKI-1; > 100 µM (inactive) in the assay on EKVX; > 100 µM with HCT-15; > 100 µM (inactive) with HOP-62; > 100 µM (inactive) in the assay on HOP-92. The GI50 is > 100 µM (inactive) in the assay on HT-29; > 100 µM (inactive) in the assay on M14; 60 µM (inactive) in the assay with Malme-3M; > 100 µM (inactive) in the assay with NCI-H522; > 100 µM (inactive) in the assay on OVCAR-3; > 100 µM (inactive) with OVCAR-4. Further, the GI50 in the assay on OVCAR-8 was > 100 µM (inactive); with SF-295, > 100 µM (inactive); in the assay on SK-MEL-2 it was > 100 µM (inactive); in the assay with SNB-19, > 100 µM (inactive); in the assay on SR it was 60 µM (inactive); in the assay with U-251 it was > 100 µM (inactive). The GI50 in the assay on UACC-257 and with UO-31 was > 100 µM (inactive) each time.
